We go through six compounds from patent US20060084697A1, “Pi3k antagonists as radiosensitizers” (priority 2002, published 2006).

The subject of experiment [1] is Akt. Briefly: Western blot of radiation-induced Akt phosphorylation in HUVEC. It is filed as cell-based, human. From the text: HUVEC cells were obtained from Clonetics and were maintained in EBM-2 medium supplemented with EGM™-2MV SINGLEQUOTS® (Bio-Whittaker, Inc., Walkersville, Md., United States of America). An Eldorado-8 Cobalt-60 teletherapy unit (Atomic Energy of Canada Limited, Mississauga, Ontario, Canada) was used to irradiate endothelial cell cultures at a dose rate of 0.84 Gy per minute. Delivered doses ranging from 0 to 12 Gy were verified by use of thermoluminescence detectors.
In order to determine if Akt is phosphorylated in response to irradiation, cultured HUVEC cells were serum starved for 4 hours, exposed to irradiation, and the phosphorylation of Akt was examined in cell extracts by Western blotting. Total cellular protein was extracted after radiation treatment as follows. Cells were counted and then washed with iced-cold PBS twice before the addition of lysis buffer (M-PER™ mammalian protein extraction reagent; Pierce Chemical Company, Rockford, Ill., United States of America; or 20 mM Tris, 150 mM NaCl, 1 mM EDTA, 1% Triton X-100, 2.5 mM sodium pyrophosphate, 1 mM phenylmethylsulphonyl fluoride (PMSF), and […] Leupeptin (Roche Molecular Biochemicals, Indianapolis, Ind., United States of America)). Protein concentrations were quantified using the Biorad method (Bradford, 1976). 50 μg protein was loaded into each well of an 8% sodium dodecyl […]-polyacrylamide gel electrophoresis (SDS-PAGE) gel and separated by electrophoresis. The proteins were subsequently transferred onto 0.45 μm nitrocellulose membranes. Membranes were blocked by incubation for 2 hours at room temperature in phosphate buffered saline-Triton (PBST: 0.9% NaCl, 0.3% Triton X-100, pH 7.4) containing 10% nonfat dry milk.
The presence of Akt protein on the membrane was determined as follows. The membranes were incubated with a 1:1000 dilution of rabbit antibody directed against either phosphorylated (Ser473) or non-phosphorylated human Akt overnight at 4° C. Rabbit antibodies were obtained from Cell Signaling Technology, Beverly, Mass., United States of America. The blots were then washed with PBST to remove unbound rabbit antibodies. The washed blots were then incubated for 1 hour at room temperature with a donkey anti-rabbit IgG secondary antibody (Amersham Biosciences, Piscataway, N.J., United States of America) diluted 1:1000 in PBST. The blots were again washed with PBST to remove unbound donkey antibodies. The presences of both phosphorylated and non-phosphorylated human Akt were determined by chemiluminescent detection of donkey anti-rabbit/rabbit anti-human Akt complexes using the ECL™ detection system (Amersham Biosciences) according to the manufacturer's protocol, followed by autoradiography. […]

For a further experiment, the system named is HUVEC cells. Briefly: Apoptotic nuclei in HUVEC, H&E staining. It is filed as cell-based, human. The settings on record: wortmannin 4 nM or LY294002 2 μM, 24 hours. As for the experimental part: To determine whether PI3K antagonists enhance the activities of intrinsic cell death mechanisms induced by irradiation, apoptosis in HUVEC cells was studied following PI3K inhibition. HUVEC cells were treated with wortmannin (4 nM) or with LY294002 (2 μM) as described in Example 2. Cells were treated 30 minutes later with 3 Gy of ionizing radiation. Cultures were stained 24 hours later with hematoxylin and eosin (H&E) to reveal apoptotic nuclei. Stained cells were then examined by light microscopy. For each treatment group, four high power fields (40× objective) were examined, and both the number of cells with apoptotic nuclei and the total number of cells were determined. From these numbers, the percentage of apoptotic cells for each group was calculated.

The test system of experiment [2] is Akt. Briefly: Western immunoblot of radiation-induced Akt phosphorylation in endothelial cells. As to conditions: for radiation-induced activation of Akt: irradiated vascular endothelium, summary statement. Format: cell-based. As for the experimental part: Broad spectrum RTK inhibitors were tested for their abilities to attenuate radiation-induced phosphorylation of Akt. SU6668, a tyrosine kinase inhibitor of VEGFR, PDGFR, FGFR, and c-Kit, was added to endothelial cells prior to irradiation. Western immunoblots using phospho-specific antibodies to phosphorylated Akt (P-Akt) were prepared.
(§1) The role of RTKs in radiation-induced activation of the Akt signaling pathway was examined by studying a panel of tyrosine kinase inhibitors including PDGF receptor antagonists in primary culture endothelial cells. PDGF receptor antagonists including SU6668, SU11248, and STI571, attenuated radiation-induced phosphorylation of both Akt and Erk. […] Similar efficacy in blocking Erk1/2 phosphorylation in irradiated endothelial cells was found.

The next experiment deals with Erk1/2. Briefly: Radiation-induced Erk phosphorylation in endothelial cells. Format: cell-based. The settings on record: for radiation-induced phosphorylation of Erk: primary culture endothelial cells (Example 16). Here is the method: Phosphorylation of MEK and Erk proteins was also investigated. Erk1/2 was activated following a single 3 Gy dose of irradiation. Erk was phosphorylated within 15 minutes, which resolved within 60 minutes. SU6668 is a broad spectrum inhibitor of split kinase domain RTKs, including Flk-1, Flt-1, PDGFR, fibroblast growth factor receptor (FGFR), and c-Kit (Mendel et al, 2003).
as §1

The mark [3] stands for this setting: added to endothelial cells prior to irradiation (Example 15).
Where [4] appears, read: primary culture endothelial cells (Example 16).

For `COC[C@H]1OC(=O)c2coc3c2[C@@]1(C)C1=C(C3=O)[C@@H]2CCC(=O)[C@@]2(C)C[C@H]1OC(C)=O` [wortmannin, Wortmannin], the “total Akt levels” value with Akt [1] (HUVEC, wortmannin 4 nM or LY294002 2 μM) is reported as “no effect”. The “apoptotic nuclei, % of cells” value in the experiment with HUVEC cells (HUVEC pretreated 30 minutes before 3 Gy) came out at 17%. Also, the apoptotic cells in the experiment with HUVEC cells (unirradiated HUVEC) stood at 3%.

In the case of `Cc1cc(C)c(/C=C2\C(=O)Nc3ccccc32)[nH]1` [SU5416], the “radiation-induced phosphorylation of Akt” value with Akt [2] (setting [3]) was “did not attenuate”.

Turning to `Cc1[nH]c(C=C2C(=O)Nc3ccccc32)c(C)c1CCC(=O)O` [SU6668, 3-[2,4-dimethyl-5-(2-oxo-1,2-dihydro-indol-3-ylidenemethyl)-1H-pyrrol-3-yl]-propionic acid], the “Erk 1/2 phosphorylation” value with Erk1/2 (added 30 minutes prior to irradiation, 3 Gy, did not entirely eliminate activation) was “attenuated”. Moreover, the “radiation-induced phosphorylation of Erk” value in the experiment with Erk1/2 was “attenuated”. Further, the entries for the “radiation-induced phosphorylation of Akt” value with Akt [2] (setting [3]) and in the experiment with Akt [2] (setting [4]) were “blocked” and “attenuated”, respectively. The “radiation-induced activation of Akt” value with Akt [2] was “attenuate”.

In the case of `CCCCCCCCCCCCCC(=O)N[C@H](C)[C@@H](O)c1ccccc1` [MAPP], the “Akt phosphorylation in response to 3 Gy irradiation” value with Akt [1] (antagonists added to HUVEC in culture (Example 18)) is “did not attenuate”.

As for `O=c1c(-c2ccc(O)cc2)coc2cc(O)cc(O)c12` [Genistein, 4′,5,7-trihydroxyisoflavone], in the experiment on Akt [2], the “radiation-induced activation of Akt” value was “attenuates”.

`Cc1ccc(NC(=O)c2ccc(CN3CCN(C)CC3)cc2)cc1Nc1nccc(-c2cccnc2)n1` [STI571]: the “radiation-induced phosphorylation of Erk” value in the experiment on Erk1/2 is “attenuated”. The “radiation-induced phosphorylation of Akt” value in the experiment with Akt [2] (setting [4]) was “attenuated”.
